# Key:
# [1] = test system: rat eye (eye-wiping response); conditions: in vivo
# [2] = test system: acetic acid-induced writhing in ICR mice; assay: animal or person; assay type: in vivo, mouse; conditions: Mus musculus, ip, read-out: Writhing Test ED50
# [3] = test system: TPA-induced ear edema in ICR mice; conditions: mouse, in vivo
# DRG neurons = assay: cells; assay type: cell-based; conditions: Rattus norvegicus, DRG neuron, 10 min, read-out: 45Ca Influx EC50
# [4] = test system: PBQ-induced writhing in ICR mice; assay: animal or person; assay type: in vivo, mouse
SMILES,MPP: moderate pain-producing potency [1] [%],RPP: relative pain-producing potency [1],ED50 [2] [mg/kg],Ear Edema Assay ID50 [3] [μg/ear],Relative Potency (Ear Edema Assay) [3],antiinflammatory activity in the TPA ear edema assay (in words) [3],EC50 (DRG neurons) [nM],"ED50 ([4]; Mus musculus, ip, read-out: Writhing Test ED50) [mg/kg]","Relative Potency (Writhing Test) ([4]; mouse, in vivo)"
"COc1cc(CC(=O)NCCCc2ccc(C)c(C)c2)ccc1OCCN [DA-5018, 2-[4-(2-aminoethoxy)-3-methoxyphenyl]-N-[3-(3,4-dimethylphenyl)propyl]acetamide, reference compound]",0.003,10,0.00227,200,0.015,weak topical activity,234,0.003,100
"COc1cc(CNC(=S)NCC(COC(=O)C(C)(C)C)Cc2ccc(C(C)(C)C)cc2)ccc1OCCN (stereo not shown) [36b, 2,2-Dimethyl Propionic Acid 2-{3-[4-(2-Aminoethoxy)-3-methoxybenzyl]thioureido Methyl}-3-(4-t-butylphenyl)propyl Ester]",–,–,0.0482,–,–,–,377 ± 67,–,–
"COc1cc(CNC(=S)NCC(COC(=O)C(C)(C)C)Cc2ccc(C)c(C)c2)ccc1OC(=O)CCC(=O)O (stereo not shown) [23a, Succinic Acid Mono-(4-{3-[3-(3,4-dimethyl-phenyl)-2-(2,2-dimethyl-propionyloxymethyl)-propyl]-thioureidomethyl}-2-methoxy-phenyl) Ester]",–,–,0.0531,–,–,–,7040 ± 1300,–,–

# — patent US6476076B1 (priority 1999, dated 2002)
